Test results taken from US9127027B2, “Epoxyeicosatrienoic acid analogs and methods of making and using the same” (The Medical College of Wisconsin, Inc., priority 2011, dated 2015).
Read-outs that look alike come from different tables or passages of the source.

Columns and labels:
Human recombinant sEH = Human recombinant sEH (Homo sapiens (Human), UniProt P34913); test: Soluble epoxide hydrolase inhibition (PHOME fluorescent substrate); assay type: biochemical; conditions: Table 1 head prints μM (Table 2 prints nM for same numbers); read-out: sEHi IC50
Sequence of Human recombinant sEH (P34913 whole entry): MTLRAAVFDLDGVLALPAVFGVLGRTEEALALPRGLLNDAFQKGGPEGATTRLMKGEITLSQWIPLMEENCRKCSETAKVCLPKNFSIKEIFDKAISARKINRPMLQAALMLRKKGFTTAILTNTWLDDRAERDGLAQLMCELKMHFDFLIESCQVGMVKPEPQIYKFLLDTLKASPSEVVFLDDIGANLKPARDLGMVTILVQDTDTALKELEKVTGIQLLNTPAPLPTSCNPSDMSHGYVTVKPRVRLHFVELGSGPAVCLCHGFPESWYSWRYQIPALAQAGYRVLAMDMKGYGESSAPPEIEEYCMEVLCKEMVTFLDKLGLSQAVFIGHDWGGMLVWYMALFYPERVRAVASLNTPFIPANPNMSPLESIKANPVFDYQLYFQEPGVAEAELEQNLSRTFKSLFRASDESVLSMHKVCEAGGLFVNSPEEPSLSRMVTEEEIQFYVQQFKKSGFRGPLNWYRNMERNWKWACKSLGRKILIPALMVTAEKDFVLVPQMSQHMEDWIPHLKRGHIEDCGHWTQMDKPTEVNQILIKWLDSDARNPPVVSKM
Protocol: Compounds were tested for their ability to inhibit recombinant soluble epoxide hydrolase (sEH) protein. The assay utilizes (3-Phhenyl-oxiranyl)-acetic acid cyano-(6-methoxy-naphthalen-2-yl)-methyl ester (PHOME), a sensitive substrate for sEH that can be used to monitor the activity of both human and murine enzymes. […] Human recombinant sEH was incubated with substrate and compounds ranging in concentration from 0.1 to 1000 nM.

bovine coronary artery = test: Vasorelaxant activity in bovine coronary artery rings precontracted with U-46619; assay type: cell-based; conditions: for Vascular Relax. % (10 μM) / activation at 10 µM: 100% relaxation = basal pre-U-46619 tension; for EC50: bovine coronary artery, read-out: Vascular Relax. EC50; for activation at 10 µM: read-out: Vascular Relax. % (10 μM)
Protocol: Vasorelaxant activity was measured in bovine coronary artery. Bovine hearts were obtained and the left anterior descending coronary artery was dissected and cleaned of connective tissue. Vessels of 1 mm diameter were cut into rings of 3 mm width as previously described (3, 27, 39). […] The vessels were suspended from a pair of stainless steel hooks in a 6-ml water-jacketed organ chamber. […] One hook was anchored to a steel rod and the other hook to a force transducer (model FT-03C; Grass Instruments, West Warwick, R.I.). Tension of the vessel was measured by an ETH-400 bridge amplifier, and the data were acquired with a MacLab 8e analog-to-digital converter and MacLab software version 3.5.6 (AD Instruments, Milford, Mass.) and stored on a Macintosh computer for subsequent data analysis.
Basal tension was set at the length-tension maximum of 3.5 g and equilibrated for 1.5 h. KCl (40 mM) was added to the chamber until reproducible maximal contractions were maintained. […] Cumulative additions of compounds were added to the chamber. Between concentration-response curves, the chambers were rinsed with fresh Krebs buffer, 40 mM KCl was administered to determine the maximum contraction, and the vessels were rinsed. Consecutive concentration-response curves were performed with 14,15-EET followed by a concentration-response curve to a compound. The experiment was always repeated with the order of the agonists reversed. […] The relaxation was plotted versus compound concentration and the EC50 determined utilizing statistical software.

SMILES | IC50 (Human recombinant sEH) [µM] | Vascular Relax. % (10 μM) (bovine coronary artery) [%] | EC50 (bovine coronary artery) [nM] | EC50 (bovine coronary artery; Bos taurus) [nM] | activation at 10 µM (bovine coronary artery; Bos taurus) [%]
CCCCCCC(=O)N(CCCC/C=C\CCCCCCC(=O)OCCOCCOCCO)C(C)C [Compound 1, 2-(2-(2-Hydroxyethoxy)ethoxy)ethyl 13-(N-isopropylheptanamido)tridec-8(Z)-enoate] | > 0.5 | 86 | 2900 |  | 
CCCCCNC(=O)NCCCC/C=C\CCCCCCC(=O)OCCOCCOCCO [Compound 2, 2-(2-(2-Hydroxyethoxy)ethoxy)ethyl 13-(3-n-pentylureido)tridec-8(Z)-enoate] |  | 72 | 5100 |  | 
CCCCNC(=O)C(=O)NCCCC/C=C\CCCCCCC(=O)OCCOCCOCCO [Compound 3, 2-(2-(2-Hydroxyethoxy)ethoxy)ethyl13-(2-(n-butylamino)-2 oxoacetamido)tridec-8(Z)-enoate] | > 0.5 | 104 | 1500 |  | 
CCCCCNC(=O)NCCCC/C=C\CCCCOCC(=O)O [Compound 4, 2-(10-(3-n-Pentylureido)dec-5(Z)-enyloxy)acetic acid] | 0.237 | 49 |  | 630 | 
CCCCCCC(=O)N(CCCC/C=C\CCCCCCC(=O)NCC(=O)O)C(C)C [Compound 5, 2-(13-(N-Isopropylheptanamido)tridec-8(Z)-enamido)acetic acid] |  | 95 |  | 1900 | 
CCCCCN(C)C(=O)N(C)CCCC/C=C\CCCCCCC(=O)NCC(=O)O [Compound 6, 2-(13-(1,3-Dimethyl-3-n-pentylureido)tridec-8(Z)-enamido)acetic acid] | > 0.5 | 92 |  | 2750 | 
CCCCCNC(=O)NCCCC/C=C\CCCCCCC(=O)NS(=O)(=O)c1ccccc1 [Compound 8, 13-(3-n-Pentylureido)-N-(phenylsulfonyl)tridec-8(Z)-enamide] | 0.041 | 73 |  | 6000 | 
CCCCCNC(=O)NCCCC/C=C\CCCCCCC(=O)NS(C)(=O)=O [Compound 9, N-(Methylsulfonyl)-13-(3-n-pentylureido)tridec-8(Z)-enamide] | 0.071 | 61 |  | 6700 | 
CCCCCNC(=O)NCCCC/C=C\CCCCCCP(=O)([O-])[O-].[Na+].[Na+] [Compound 10] | > 0.5 | 71 |  | > 10000 | 
CCCCCNC(=O)NCCCC/C=C\CCCCCCS(=O)(=O)[O-].[Na+] [Compound 11] | 0.057 | 63 |  | 7600 | 
CCCCCNC(=O)NCCCC/C=C\CCCCCNS(=O)(=O)c1ccccc1 [Compound 12, N-(11-(3-n-Pentylureido)undec-6(Z)-enyl)benzenesulfonamide] | 0.032 |  |  | 3400 | 75
CCCCCNC(=O)NCCCC/C=C\CCCCCSc1ccccc1O [Compound 13, 1-(11-(2-Hydroxyphenylthio)undec-5(Z)-enyl)-3-n-pentylurea] | 0.006 |  |  | > 10000 | 48
CCCCCNC(=O)NCCCC/C=C\CCCCCS(=O)(=O)c1ccccc1O [Compound 14, 1-(11-(2-Hydroxyphenylsulfonyl)undec-5(Z)-enyl)-3-n-pentylurea] |  |  |  | 5000 | 76
CCCCCNC(=O)NCCCC/C=C\CCCCCSc1nnn[nH]1 [Compound 15, 1-(11-(1H-Tetrazol-5-ylthio)undec-5(Z)-enyl)-3-pentylurea] | 0.022 |  |  | 3700 | 85
CCCCCNC(=O)NCCCC/C=C\CCCCCSc1ncn[nH]1 [Compound 16] | 0.032 |  |  | 9800 | 53
CCCCCNC(=O)NCCCC/C=C\CCCCC[S+]([O-])c1ncn[nH]1 (stereo not shown) [Compound 17] | 0.096 |  |  | 3500 | 92
CCCCCNC(=O)NCCCC/C=C\CCCCCS(=O)(=O)c1ncn[nH]1 [Compound 18] | 0.023 |  |  | 3100 | 92
CCCCCCC(=O)N(CCCC/C=C\CCCCCCc1nnn[nH]1)C(C)C [Compound 19] |  | 74 |  | 1000 | 
CCCCNC(=O)C(=O)NCCCC/C=C\CCCCCCc1nnn[nH]1 [Compound 21] | > 0.5 | 96 |  | 1700 | 
CCCCCNC(=O)NCCCC/C=C\CCCCCCCc1nnn[nH]1 [Compound 22, 1-(13-(1H-Tetrazol-5-yl)tridec-5(Z)-enyl)-3-n-pentylurea] | 0.032 | 110 |  | 1100 | 
CCCCCNC(=O)NCCCC/C=C\CCCCCCc1noc(=O)[nH]1 [Compound 23] | 0.065 | 89 |  | 1100 | 
CCCCCNC(=O)NCCCC/C=C\CCCCCC1SC(=O)NC1=O (stereo not shown) [Compound 24, 1-(11-(2,4-Dioxothiazolidin-5-yl)undec-5(Z)-enyl)-3-n-pentylurea] | 0.057 |  |  | > 10000 | 47
CCCCCNC(=O)NCCCC/C=C\CCCCCCC1=NOS(=O)N1 (stereo not shown) [Compound 25] | 0.01 | 109 |  | 340 | 
CCCCNC(=O)C(=O)NCCCC/C=C\CCCCCCC1=NOS(=O)N1 (stereo not shown) [Compound 27] | > 0.5 |  |  | 360 | 116
CCCCCNC(=O)NCCCC/C=C\CCCCCCc1noc(=S)[nH]1 [Compound 28] | 0.031 | 93 |  | 3300 | 
CCCCCNC(=O)NCCCC/C=C\CCCCCCc1nsc(=O)[nH]1 [Compound 29] | 0.231 | 54 |  | 2400 | 
CCCCCNC(=O)NCCCCCOc1cccc2sc(NC(C)=O)nc12 [Compound 31, N-(4-(5-(3-n-Pentylureido)pentyloxy)benzo[d]thiazol-2-yl)acetamide] | > 0.5 | 73 |  | 900 | 
CCCCNC(=O)C(=O)NCCCCCOc1cccc2sc(NC(C)=O)nc12 [Compound 32] |  | 96 |  | 2400 | 
